We go through 20 molecules from PubChem BioAssay (NCI).

Where “and” joins values, the source holds several entries; their conditions need not be identical. Identical values can stand only once.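 Assay format: 96-well plates, 48-hour exposure. GI50 marks 50% less growth. TGI is the concentration that stops growth completely.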 Where a SMILES comes first, the peptide text is derived from it. [ ]: non-standard residue; d: D form. The star is where a group is joined. Bn2Val = CC(C)[C@@H](C(=O)*)N(Cc1ccccc1)Cc1ccccc1; NH(3,4-diMeO-benzyl) = COc1ccc(CN*)cc1OC; NMeV = CN[C@H](C(=O)O)C(C)C; dNMeA = CN[C@H](C)C(=O)O

What all share (test): inhibition of tumour cell growth, NCI panel, 48 h
The subject of assay [1] is NCI-H23 lung.
Assay [2] has as its system SK-MEL-2 melanoma.
In assay [3] the test system is ACHN renal.
Assay [4] has as its system SNB-75 CNS.
Assay [5] deals with OVCAR-8 ovarian.
Assay [6] relates to SW-620 colon.
In assay [7] the test system is U251 CNS.
In assay [8] the test system is HT29 colon.
Assay [9] concerns OVCAR-3 ovarian.

On to `N#Cc1c(O)c2c(c(O)c1C#N)C(=O)c1ccccc1C2=O`, for which the GI50 in [1] was 0.621 µM; in [2] it was 2.66 µM; in assay [3], 2.72 µM; in assay [4], 1.37 µM; in assay [5], 2.33 µM; in assay [6], 2.5 µM. Moreover, the GI50 in assay [7] was 1.92 µM; in assay [8], 0.563 µM; in assay [9], 0.745 µM. In addition, the TGI in [1] worked out at 2.7 µM; in assay [2], 7.73 µM; in assay [3], 9.96 µM; in assay [4], 3.94 µM; in assay [5] it was 6.48 µM; in [6], 7.55 µM. Further, the figures for the TGI in assay [7], in [8] and in assay [9] were 5.54 µM, 3.96 µM and 2.94 µM, respectively.
Take `CCOC(=O)CCCO`: the TGI in [1], in assay [2], in [3], in assay [4], in assay [5] and in [6] was above 100 µM each time. In addition, the TGI in [7], in assay [8] and in assay [9] was above 100 µM each time.
With `CN=C1NC(=O)/C(=C/c2ccc3ncccc3c2)S1`, the GI50 in assay [1] was 8.38 µM; in assay [2], 5.42 µM; in [3], 6.77 µM; in [4] it was 3.8 µM; in assay [5], 7.73 µM; in assay [6] it was 8.41 µM. Also, the GI50 in [7] is 5.19 µM; in assay [8], 9.14 µM; in assay [9] it was 9.11 µM. For the same molecule, the TGI in assay [1] was above 25 µM; in assay [2], 14.4 µM; in [3] it was above 25 µM; in [4], above 21.2 µM; in assay [5] it was above 25 µM; in [6], above 25 µM. Further, the TGI in assay [7], in [8] and in assay [9] was above 25 µM throughout.
`O=C(O)/C=C/C(=O)Nc1ncn[nH]1`: the TGI in assay [1], in assay [2], in [3], in assay [4], in assay [5] and in [6] was above 100 µM throughout. In addition, the TGI in assay [7], in assay [8] and in assay [9] was above 100 µM each time.
With `CC1=C2[C@@H](CC1)[C@]1(C)O[C@@](C(C)C)(C[C@H]1OC(=O)[C@H](C)O)[C@H]2OC(=O)/C=C/c1ccccc1`, the GI50 in [1] is 14.3 µM; in [2] it was 16.1 µM; in [3], 0.145 µM; in [4], 19.2 µM; in assay [5], 0.451 µM; in assay [6] it was 16.4 µM. The GI50 is 14.2 µM in assay [7], 13.6 µM in [8] and 12.5 µM in assay [9]. Further, the TGI in assay [1] was 33.3 µM; in [2], 33 µM; in assay [3] it was 13 µM; in [4], 51.2 µM; in assay [5], 16.6 µM; in [6] it was 33.9 µM. Besides, the results for the TGI in [7], in assay [8] and in [9] were 28 µM, 30 µM and 26.1 µM, respectively.
Take `CN(C)c1ccc2c(c1)oc(=O)c1ccccc12`: the TGI in assay [1] is 22.4 µM; in [2], 23.2 µM; in assay [3], 44.6 µM; in assay [4], 31.9 µM; in assay [5], 25.4 µM; in assay [6], 23.4 µM. In addition, the values for the TGI in assay [7], in [8] and in assay [9] were 24.3 µM, 26.1 µM and 16.4 µM, respectively.
Regarding `O=c1[nH]c(=O)n(C2CC(O)C(CO)O2)cc1C#Cc1c(F)c(F)c(F)c(F)c1F` (stereo not given), the TGI in assay [1], in assay [2], in assay [3], in [4], in assay [5] and in assay [6] was above 100 µM in each case. The TGI in [7], in assay [8] and in [9] was above 100 µM in each case.
`O=C(O)Cc1c[nH]c2ccc(F)cc12`: the TGI in assay [1], in assay [2], in assay [3], in [4], in assay [5] and in assay [6] was above 100 µM each time. For the same molecule, the TGI in assay [7], in assay [8] and in assay [9] was above 100 µM throughout.
For `CN1CCN(Cc2ccc(NC(=O)c3cncc(C#Cc4cnc(N)c5ccccc45)c3)cc2C(F)(F)F)CC1`, the GI50 in assay [1] was 0.41 µM; in assay [2] it was 0.196 µM; in assay [3] it was 0.145 µM; in [4], 0.443 µM; in assay [5] it was 0.473 µM; in assay [6], 0.125 µM. Moreover, the GI50 was 0.279 µM in [7], 0.28 µM in assay [8] and 0.41 µM in [9]. The TGI in [1] was 0.963 µM; in assay [2], 0.697 µM; in [3], 0.523 µM; in assay [4], 0.877 µM; in assay [5], 1.46 µM; in assay [6], 0.421 µM. In addition, the TGI in [7] turned out to be 0.763 µM; in assay [8], 1.29 µM; in assay [9], 0.967 µM.
For `O=S(=O)(O)C(O)/C=C/c1ccccc1` (stereo not given), the TGI in [1], in assay [2], in assay [3], in assay [4], in [5] and in [6] was above 100 µM in each case. The TGI in [7], in assay [8] and in assay [9] was above 100 µM in each case.
With `NS(=O)(=O)c1ccc(-n2nc(-c3ccc(Br)cc3)ccc2=O)cc1`, the GI50 in assay [1], in assay [2], in assay [3], in assay [4], in [5] and in assay [6] was above 10 µM each time. Further, the GI50 in assay [7], in assay [8] and in [9] was above 10 µM each time. Also, the TGI in assay [1], in assay [2], in assay [3], in [4], in [5] and in assay [6] was above 10 µM throughout. Besides, the TGI in assay [7], in assay [8] and in assay [9] was above 10 µM in each case.
As for `COc1ccc(CNC(=O)[C@@H](C)N(C)C(=O)[C@@H]2CCCN2C(=O)[C@H](C(C)C)N(C)C(=O)[C@@H](NC(=O)[C@H](C(C)C)N(Cc2ccccc2)Cc2ccccc2)C(C)C)cc1OC` (Bn2Val-V[NMeV]P[dNMeA]-{NH(3,4-diMeO-benzyl)}), the TGI was 26.6 µM and 42.4 µM in assay [1]; 15.1 µM and 15 µM in assay [2]; 14.9 µM and 23.9 µM in assay [3]; 16.6 µM and 15.9 µM in assay [4]; 50 µM and > 100 µM in assay [5]; 41.7 µM and 38 µM in assay [6]. The TGI is 22.1 µM and 20 µM in assay [7]; 12.2 µM and 10.6 µM in assay [8]; 14.6 µM and 24.7 µM in [9]. Also, the GI50 in assay [2] is 4.38 µM; in assay [3], 8.21 µM; in assay [4] it was 3.54 µM; in [5], 16.3 µM; in [8] it was 3.08 µM; in [9], 10 µM.
On to `O=[n+]1c(CBr)c(CBr)n([O-])c2ccccc21`, for which the GI50 in [1] was 14.8 µM; in [2], 15.3 µM; in assay [3], 1.76 µM; in [4], 10.6 µM; in assay [5], 15.2 µM; in assay [6] it was 1.86 µM. The GI50 in [7] was 14.5 µM; in assay [8] it was 1.91 µM; in assay [9], 1.79 µM. Also, the TGI turned out to be 29.4 µM in [1]; 29.6 µM in assay [2]; 3.18 µM in assay [3]; 47.6 µM in [4]; 31 µM in assay [5]; 3.69 µM in assay [6]. Also, the TGI was 29.8 µM in assay [7], 3.49 µM in assay [8] and 3.25 µM in assay [9].
`COc1cc2c(cc1O)[C@H](Cc1ccc(Oc3cc(C[C@H]4c5cc(OC)c(OC)cc5CCN4C)ccc3OC)cc1)NCC2`: the TGI amounted to 24.2 µM in assay [1]; 32.1 µM in assay [2]; 23.6 µM in assay [3]; 21.8 µM in assay [4]; 27.8 µM in assay [5]; 25.5 µM in assay [6]. In addition, the TGI was 24.3 µM in assay [7], 19.4 µM in assay [8] and 22.4 µM in assay [9].
For `Fc1ccc(-c2nn(-c3ccccc3)cc2-c2nc3ccccc3o2)cc1`, the GI50 in assay [1] is 2.26 µM; in assay [2], 9 µM; in [3], 4.1 µM; in assay [4], 9.89 µM; in assay [5], 3.61 µM; in [6] it was 3.12 µM. The GI50 in assay [7] was 1.93 µM; in assay [8], 9.46 µM; in assay [9] it was 2.87 µM. Moreover, the TGI in assay [1] was 11.7 µM; in [2], 28.3 µM; in [3] it was above 100 µM; in assay [4] it was 33.4 µM; in [5], above 100 µM; in assay [6], 36.4 µM. Also, the TGI stood at 16.5 µM in [7], 30.4 µM in assay [8] and 48.7 µM in assay [9].
In the case of `COc1cccc(-c2nn(-c3ccccc3)cc2-c2ccnc(NCCCNS(=O)(=O)c3cccc(F)c3)c2)c1`, the GI50 was 4.47 µM in assay [1]; 2.59 µM in assay [2]; 3.56 µM in assay [3]; 4.57 µM in assay [4]; 3.93 µM in assay [5]; 5.54 µM in [6]. Besides, the GI50 in [7] was 4.83 µM; in assay [8], 2.87 µM; in [9], 4.88 µM. Further, the TGI in assay [1] was above 100 µM; in assay [2], 8.32 µM; in [3] it was above 100 µM; in [4] it was above 100 µM; in [5] it was above 100 µM; in assay [6], above 100 µM. The TGI in assay [7] is above 100 µM; in assay [8] it was 18.8 µM; in [9] it was above 100 µM.
Regarding `CN(C)CCNc1nc2ccccc2c2[nH]c3ccccc3c12`, the GI50 in assay [1] is 0.96 µM; in assay [2], 2.44 µM; in assay [3], 0.19 µM; in assay [4] it was 1.22 µM; in [5], 0.535 µM; in assay [6], 0.764 µM. Also, the GI50 in [7] was 0.386 µM; in assay [8] it was 0.188 µM; in assay [9] it was 0.438 µM. Further, the TGI is 4.65 µM in assay [1]; 20.9 µM in assay [2]; 1.21 µM in assay [3]; 3.2 µM in assay [4]; 9.93 µM in assay [5]; 19.7 µM in assay [6]. Also, the figures for the TGI in assay [7], in [8] and in assay [9] were 2.04 µM, above 77.1 µM and 2.01 µM, respectively.
With `CC(=O)c1ccc(N(/C=C/C(=O)C(F)(F)F)CC(=O)c2ccc(Cl)c(Cl)c2)cc1`, the GI50 is 18 µM in [1]; 15.3 µM in assay [2]; 14.4 µM in [3]; 18 µM in [4]; 16.1 µM in assay [5]; 18.3 µM in assay [6]. Besides, the GI50 in assay [7] was 14 µM; in assay [8], 24.4 µM; in assay [9], 13.9 µM. The TGI in [1] was 35.6 µM; in [2], 30.4 µM; in [3], 27.7 µM; in assay [4], 38.3 µM; in assay [5], 31.4 µM; in [6] it was 34.8 µM. In addition, the TGI in [7] was 27.7 µM; in assay [8], above 100 µM; in assay [9], 27.5 µM.
On to `CN(C)S(=O)(=O)Nc1ccccn1`, for which the TGI in assay [1], in [2], in assay [3], in assay [4], in [5] and in assay [6] was above 100 µM each time. Further, the TGI in [7], in assay [8] and in assay [9] was above 100 µM in each case.
With `O=C1c2ccccc2C(=O)c2c1ccc1[nH]c(CCl)nc21`, the GI50 in [1] is 1.65 µM; in assay [2] it was 3.26 µM; in assay [3], 2.27 µM; in assay [4], 1.56 µM; in [5], 3.68 µM; in [6], 1.56 µM. For the same molecule, the figures for the GI50 in assay [7], in assay [8] and in assay [9] were 2.21 µM, 1.89 µM and 1.64 µM, respectively. Besides, the TGI was 3.6 µM in assay [1]; 12.2 µM in assay [2]; 6.49 µM in [3]; 10.8 µM in [4]; 15.7 µM in assay [5]; 3.3 µM in assay [6]. Further, the TGI in assay [7] amounted to 6.56 µM; in [8], 4.77 µM; in [9], 3.03 µM.
